From the Biogen ADME set (Fang et al. 2023)
Converted amounts (≈) assume the structure as drawn.

Details: for aqueous solubility: pH 6.8

Row | SMILES | MDR1-MDCK efflux ratio | intrinsic clearance, human liver microsomes [mL/min/kg] | intrinsic clearance, rat liver microsomes [mL/min/kg] | aqueous solubility [µg/mL] | fraction unbound, human plasma | fraction unbound, rat plasma
1 | COc1cc(CN2CCC(c3ccnc(C)n3)CC2)ccc1F | 0.674 | 11.2 | 73.6 | 71 (≈ 225 µM) |  | 
2 | CN(C(=O)CNC(=O)c1ccccc1OCC(=O)Nc1ccc(Br)cc1)c1ccccc1 | 3.43 |  |  | 0.35 (≈ 0.705 µM) |  | 
3 | CCc1cc(-c2ccc(OC)c3ncccc23)nc(N2CCOCC2)n1 | 0.848 | 28.6 | 95.3 |  |  | 
4 | CC(C)c1nnc(CNc2ncc(Br)cn2)n1C | 4.39 | ≤ 4.74 | ≤ 10.7 |  |  | 
5 | CCC(=O)N1CCCc2cc(C(O)CN3CCN(c4ccc(OC)cc4)CC3)ccc21 (stereo unspecified) | 1.69 | 167 | 283 | 70 (≈ 165 µM) |  | 
6 | O=C(CN1CCC(n2c(=O)[nH]c3ccccc32)CC1)N1CCc2ccccc21 | 51 | 10.4 | 393 | 21.9 (≈ 58 µM) |  | 
7 | Cc1ccc(NC(=O)CN2[C@H](Cc3ccccc3)C[C@]3(C)NC(=O)CCC[C@H]23)cc1F | 12.4 | 499 | 3320 |  | 0.00729 | 0.023
8 | CCn1cnnc1CN(C)C1CCN(c2ccccc2F)CC1 | 2.68 | ≤ 4.74 | 340 |  |  | 
9 | Cc1csc(-c2nnc(Nc3ccc(Oc4ncccc4-c4ccnc(N)n4)cc3)c3ccccc23)c1 | 0.918 |  |  | 0.76 (≈ 1.51 µM) |  | 
10 | COc1ccc(COc2ccc(Cc3cnc(N)nc3N)cc2OC)cc1 | 11 | 13.3 | 249 |  |  | 
11 | COCc1nc(-c2cc(F)ccc2F)c(C)s1 | 0.684 | 133 | 425 | 3.6 (≈ 14.1 µM) |  | 
12 | Cn1cnnc1NC(=O)c1cnn2c1CCCC2 | 3.95 | ≤ 4.74 | ≤ 10.7 |  |  | 
13 | CCCCN(CC)c1nc(C)nc2c1c(C)c(C)n2-c1c(C)cc(C)cc1C |  | 198 | 1380 |  |  | 
14 | Cc1ccnc(Oc2cc(N)ccc2C)c1 | 0.542 | ≤ 4.74 | 230 | 35.3 (≈ 165 µM) |  | 
15 | Cc1ccc(-c2cc(NC(=O)CN3CCOCC3)on2)cc1 | 0.561 | ≤ 4.74 | 71 | 52.1 (≈ 173 µM) |  | 
16 | COc1cccc(NC(=O)C2CNC2)c1 |  | ≤ 4.74 | 59.4 | 29.5 (≈ 143 µM) |  | 
17 | Cc1nc2ccccc2c(N)c1C(=O)/C=C/c1ccccc1 | 0.244 | 50 | 922 | 41.4 (≈ 144 µM) |  | 
18 | CN(C)C1CN(c2nc(-c3cnccn3)nc3sc4c(c23)CCCC4)C1 | 1.17 | 92.5 | 2720 | 37 (≈ 101 µM) |  | 
19 | Cc1ccc(C#N)c(NC(=O)CCc2ccccc2)n1 |  | 11.1 | 240 |  |  | 
20 | OC1CCN(c2nccc(-c3cccs3)n2)CC1 | 0.493 | 52.6 | 656 |  |  | 
21 | COCCOCc1ccc(-c2cc3onc(-c4ccccc4)c3c(=O)n2C)cc1 | 0.466 | 13.7 | 135 | 14.2 (≈ 36.5 µM) |  | 
22 | Clc1cccc(-c2nnc(Cn3cnc4ccccc43)o2)c1 | 0.866 | 7.23 | 122 | 27.4 (≈ 88.2 µM) |  | 
23 | Cc1cc(C)c(-c2csc(NC(=O)Cn3cnnn3)n2)c(C)c1 | 7.69 |  |  | 0.12 (≈ 0.365 µM) |  | 
24 | N#Cc1cccc(CNCc2ccccn2)c1 | 0.554 | ≤ 4.74 | 30.3 |  |  | 
25 | CCN1CCN(C(=O)CNc2ncnc3onc(C)c23)CC1 | 3.68 | ≤ 4.74 | ≤ 10.7 |  |  | 
26 | N[C@H](Cc1c[nH]c2ccccc12)C(=O)N/N=C/c1ccc2nccnc2c1 | 13.4 | 17.2 | 55.8 | 40.3 (≈ 112 µM) |  | 
27 | CO[C@H]1[C@H](C2(C)O[C@@H]2CC=C(C)C)[C@]2(CC[C@H]1OC(=O)/C=C/c1ccc(OCCN(C)C)cc1)CO2 (stereo partly specified) |  | 210 | 795 |  |  | 

Row | SMILES | MDR1-MDCK efflux ratio | intrinsic clearance, human liver microsomes [mL/min/kg] | intrinsic clearance, rat liver microsomes [mL/min/kg] | aqueous solubility [µg/mL] | fraction unbound, human plasma | fraction unbound, rat plasma
28 | c1ccc(-c2n[nH]c(C3CCN(c4cnc5ccccc5n4)CC3)n2)cc1 | 1.2 | 10.7 | 114 | 6.21 (≈ 17.4 µM) |  | 
29 | Cc1cccnc1NC(=O)Cc1coc2c(C)c(C)ccc12 | 0.636 | 124 | 4310 | 74.7 (≈ 254 µM) |  | 
30 | Cc1nc(CC2CCN(S(=O)(=O)c3cn(C)cn3)CC2)cc(NC2CCCC2)n1 | 37.4 | 9.96 | 90.9 | 59.5 (≈ 142 µM) |  | 
31 | Cc1ccccc1OCCn1c(N)nc2ccccc21 | 1.52 | 19.1 | 1760 | 40.6 (≈ 152 µM) |  | 
32 | COc1ccc(CNC(=O)c2sc3nc(C)cc(C)c3c2N)cc1 | 0.386 | 44.1 | 558 |  | 0.0044 | 0.00657
33 | CN(C)C(=O)c1ccc(NC(=O)c2cccc(F)c2)cc1 | 0.927 | 9.98 | 69.2 | 46.5 (≈ 162 µM) |  | 
34 | CC(=O)NC1(C(=O)N2CCCN(C3CC3)CC2)CCC(C)CC1 (stereo unspecified) | 37.7 | 27.7 | 80.8 | 53.8 (≈ 167 µM) |  | 
35 | O=C(NCCN1CCC(n2c(=O)[nH]c3cc(Cl)ccc32)CC1)c1ccc(F)cc1 |  | 60.9 | 373 |  |  | 
36 | COc1ccc2cc(-c3[nH]c(-c4ccc(S(C)=O)cc4)nc3-c3ccncc3)ccc2c1 (stereo unspecified) | 34.8 | 4.96 | 121 | 3.4 (≈ 7.74 µM) |  | 
37 | CNC(=O)c1ccc(CN(C)c2c(F)cc(C#N)cc2F)cc1 | 0.595 | 11.5 | 238 | 15.7 (≈ 49.9 µM) |  | 
38 | c1ccc(OCc2cc(CC3(NCc4cnc5ccccc5c4)COC3)no2)cc1 | 1.29 | 153 | 1270 | 13.1 (≈ 32.6 µM) |  | 
39 | Cc1ccc(NS(C)(=O)=O)c(C(=O)N(C)c2ccc3ccccc3c2)c1 | 1.8 | 12.4 | 1100 | 54.4 (≈ 148 µM) |  | 
40 | COc1ccc(CNC(=O)c2cc(-c3cncc(C)c3)ncc2-c2nccs2)nc1OC | 9.82 | 17.7 | 125 | 9.86 (≈ 22 µM) |  | 
41 | CCN1CCc2ncnc(N3CCNc4ccccc4C3)c2C1 | 1.78 | ≤ 4.74 | 105 | 52.1 (≈ 168 µM) |  | 
42 | CC(C)n1cnnc1-c1cccc(N2Cc3ccc(Br)cc3C2=O)n1 | 2.6 | 6.01 | 55.5 |  |  | 
43 | CCC(Oc1ccccc1)C(=O)Nc1nc2ccccc2[nH]1 (stereo unspecified) |  |  |  | 11.8 (≈ 40.1 µM) |  | 
44 | CCOCC(=O)NCc1cc(C2CC2)n(C2CCCC2)n1 | 0.768 | 21.9 | 264 | 37.9 (≈ 130 µM) |  | 
45 | O=C(CSc1ccccn1)N1CCSc2ccccc21 | 0.586 | 426 | 6400 |  |  | 
46 | CC1(C)O[C@@](C)([C@H]2CC3(CCNCC3)CO2)CC[C@@H]1O | 0.443 | ≤ 4.74 | ≤ 10.7 | 42.6 (≈ 150 µM) |  | 
47 | Cc1nc2n(c1CN1CCN(c3ncccn3)CC1)CCCC2 | 7.45 | 29.1 | 1180 |  |  | 
48 | Cc1nc(Nc2nccs2)cc(C2CN(c3ncccn3)C2)n1 | 1.45 | 30.3 | 74.2 |  | 0.0278 | 0.0237
49 | COCCN(C)c1ccc(CN2CCOC3(CCCC3)C2)cn1 | 0.619 | 38.5 | 633 |  |  | 
50 | CC(=O)N1CCC(C(=O)Nc2nccs2)(c2ccccc2)CC1 | 39.4 | 5.73 | 236 | 62.3 (≈ 189 µM) |  | 
51 | O=C(Nc1nccs1)C1CCN(C(=O)CN2CCc3ccccc32)CC1 | 24.4 | 33.2 | 394 | 51.4 (≈ 139 µM) |  | 
52 | Clc1cccc(Nc2ncnc3[nH]ncc23)c1Cl |  |  |  | 3.23 (≈ 11.5 µM) |  | 
53 | CC#CC(=O)N1CCC[C@@H]1c1nc(-c2ccc(C(=O)Nc3ccccn3)cc2)c2c(N)nccn12 | 37.1 | 73.9 | 275 |  | 0.0946 | 
54 | CCOC(=O)Cc1c(C)[nH]c2c(-c3ccccc3)cnn2c1=O | 18 | 6.21 | 89.6 | 14.9 (≈ 47.9 µM) |  | 
